Data published in patent publication US7572439B2, “Enzyme disruption of bacterial biofilms” (priority 2002, dated 2009).

System: S. aureus
Test: Killing of bacteria in lysostaphin-coated Angiocath catheters
Format: cell-based
Method: Two Angiocath catheters (Becton Dickinson) were incubated with 200 PI of a 100 μg/mL solution of lysostaphin, while two others were incubated in PBS. The catheters were allowed to incubate overnight at 4° C. The following morning the catheters were washed with 50 ml PBS using a pump with a flow rate of 1.5 ml/minute. Once the catheters were washed, S. aureus SA5 was diluted in PBS to a percent transmittance of 40. A 1:10,000 dilution of this solution was made, and 100 μl was added to each catheter. The catheters were allowed to incubate for two hours at 37° C. Following incubation, the catheter effluent was plated onto blood agar plates and put in the incubator overnight at 37° C. The colonies on the plates were counted the following morning.
Coating of Catheters. The needles from the AngioCath catheters were removed and disposed. Using a 1 ml syringe, the catheters were coated with 200 μl of a 0.1 mg/ml solution of lysostaphin. The catheters were incubated for 1 hour, unless otherwise specified, at room temperature. The catheters were then washed with 50 ml of phosphate buffered saline using a peristaltic pump with a flow rate of 1.5 ml/minute. The catheters were then inoculated with 120 μl of a ˜5×10^4 CFU/ml solution of bacteria (diluted in TSB) and incubated for 2 hours at 37° C. The catheter effluent was then streaked onto a blood agar plate and incubated overnight at 37° C.

lysostaphin
CFU (Angiocath, coating 100 μg/ml overnight 4° C., SA5 two hours 37° C.): 0 CFU
CFU (n = 2) (Table 13, AngioCath, coating concentration 0.1 mg/ml): 0 CFU
CFU (n = 2) (catheter coating 0.1 mg/ml, MRSA (MBT5040)): 1 CFU
CFU (n = 2) (catheter coating 0.1 mg/ml, SA5): 1 CFU
CFU (n = 2) (catheter coating 0.1 mg/ml, SA8): 0 CFU
reduction of bacterial counts (catheters coated 5 minutes with 0.1 mg/ml): 98.7%
reduction of bacterial counts (catheters coated 10 minutes with 0.1 mg/ml): 99.4%
reduction of bacterial counts (catheters coated 15 minutes with 0.1 mg/ml): completely cleared
clearing of bacteria from coated catheters (catheters incubated with SA8): completely cleared
CFU recovered from the catheters, on average (coated catheters incubated with MRSA (MBT5040)): 1 CFU
clearing of bacteria from coated catheters (vs 493 CFU's from control catheters): completely cleared of bacteria
